Assay results: patent publication US9353072B2, “Antimicrobial substituted thiazoles and methods of use” (Purdue Research Foundation, priority 2012, dated 2016)
Converted amounts (≈) assume the structure as drawn. Read-outs that look alike come from different tables or passages of the source.

Legend:
[1] = tested on: MRSA ATCC 43300; assay: MIC/MBC broth microdilution, MRSA ATCC 43300; type: cell-based, Staphylococcus aureus; settings: Staphylococcus aureus
Experimental: (§1) Determination of minimum inhibitory concentration (MIC). The MICs of the lead thiazole compound (compound 1a) and nine derivatives tested against all 18 MRSA strains were determined, in triplicate samples, using the broth microdilution method in accordance with the recommendations contained in the CLSI guidelines.

[2] = tested on: MRSA ATCC 700699 (NRS1, VISA); assay: MIC/MBC broth microdilution, NRS1 (ATCC 700699); type: cell-based; settings: Staphylococcus aureus
Experimental: as §1

[3] = tested on: VISA HIP07256 (NRS19); assay: MIC/MBC broth microdilution, NRS19 (VISA HIP07256); type: cell-based; settings: Staphylococcus aureus
Experimental: as §1

[4] = tested on: VISA LIM 3 (NRS37); assay: MIC/MBC broth microdilution, NRS37 (VISA LIM 3); type: cell-based; settings: Staphylococcus aureus
Experimental: as §1

[5] = tested on: NRS107; assay: MIC/MBC broth microdilution, NRS107; type: cell-based; settings: Staphylococcus aureus
Experimental: as §1

[6] = tested on: NRS119; assay: MIC/MBC broth microdilution, NRS119; type: cell-based; settings: Staphylococcus aureus
Experimental: as §1

[7] = tested on: MRSA USA400 (NRS123); assay: MIC/MBC broth microdilution, NRS123 (USA400); type: cell-based; settings: Staphylococcus aureus
Experimental: as §1

[8] = tested on: NRS194; assay: MIC/MBC broth microdilution, NRS194; type: cell-based; settings: Staphylococcus aureus
Experimental: as §1

[9] = tested on: MRSA NRS384 (USA300); assay: MIC/MBC broth microdilution, NRS384 (USA300); type: cell-based; settings: Staphylococcus aureus
Experimental: as §1

[10] = tested on: MRSA USA500 (NRS385); assay: MIC/MBC broth microdilution, NRS385 (USA500); type: cell-based; settings: Staphylococcus aureus
Experimental: as §1

[11] = tested on: VRSA (VRS10); assay: MIC/MBC broth microdilution, VRSA (VRS10); type: cell-based, Staphylococcus aureus; settings: Staphylococcus aureus, VRSA; for MBC: read-out: Minimum Bactericidal Concentration; for MIC: read-out: Minimum Inhibitory Concentration
Experimental: as §1

[12] = tested on: MRSA USA100; assay: MIC broth microdilution, MRSA USA100; type: cell-based; settings: Staphylococcus aureus, read-out: Minimum Inhibitory Concentration
Experimental: as §1

[13] = tested on: MRSA USA200; assay: MIC broth microdilution, MRSA USA200; type: cell-based; settings: Staphylococcus aureus, read-out: Minimum Inhibitory Concentration
Experimental: as §1

[14] = tested on: MRSA (USA300); assay: Time-kill assay; type: cell-based, Staphylococcus aureus; settings: 3.0×MIC; MRSA (USA300)
Experimental: Time-kill assay. […] Viable CFU/mL was determined by serial dilution and plating on trypticase soy agar (TSA) (Becton, Dickinson and Company, Sparks, Md., USA) plates after 0, 2, 4, 6, 8, 10, and 12 hours of incubation at 37° C. to identify the time required to reduce the bacterial cell count by 3-log10.

[15] = read-out: Minimum Bactericidal Concentration
[16] = read-out: Minimum Inhibitory Concentration
[17] = NRS 119 / VISA, read-out: Minimum Bactericidal Concentration
[18] = NRS 119 / VISA, read-out: Minimum Inhibitory Concentration

Question: Which MBC [1] does the source give for `C/C(=N\NC(=N)N)c1sc(-c2cccc(F)c2)nc1C` [Compound M16, (E)-2-(1-(2-(3-fluorophenyl)-4-methylthiazol-5-yl)ethylidene)hydrazinecarboximidamide] here?
Answer: The MBC was 128 µM (≈ 37.3 µg/mL).

Question: And the MIC [1]?
Answer: The MIC was 128 µM (≈ 37.3 µg/mL).

Question: And the MIC ([1]; 20 h)?
Answer: Its MIC is 32 µM (≈ 9.32 µg/mL).

Question: What about the MBC [1, 15] of the same compound?
Answer: Its MBC is 64 µM (≈ 18.6 µg/mL).

Question: And the MIC [1, 16]?
Answer: The MIC was 32 µM (≈ 9.32 µg/mL).

Question: What about the MBC [2] of the same compound?
Answer: The MBC was 128 µM (≈ 37.3 µg/mL).

Question: And the MIC ([2]; 20 h)?
Answer: The MIC was 128 µM (≈ 37.3 µg/mL).

Question: And the MBC [2, 15]?
Answer: Its MBC is 64 µM (≈ 18.6 µg/mL).

Question: And the MIC [2, 16]?
Answer: The MIC was 32 µM (≈ 9.32 µg/mL).

Question: And the MBC [3]?
Answer: The MBC was 128 µM (≈ 37.3 µg/mL).

Question: What about the MIC [3] of the same compound?
Answer: Its MIC is 128 µM (≈ 37.3 µg/mL).

Question: And the MBC [4]?
Answer: Its MBC is 128 µM (≈ 37.3 µg/mL).

Question: What about the MIC [4] of the same compound?
Answer: The MIC was 128 µM (≈ 37.3 µg/mL).

Question: And the MBC [5]?
Answer: Its MBC is 128 µM (≈ 37.3 µg/mL).

Question: What about the MIC [5] of the same compound?
Answer: Its MIC is 128 µM (≈ 37.3 µg/mL).

Question: And the MBC ([6]; NRS119)?
Answer: Its MBC is 128 µM (≈ 37.3 µg/mL).

Question: And the MIC ([6]; NRS119)?
Answer: Its MIC is 128 µM.

Question: And the MBC [6, 17]?
Answer: Its MBC is 64 µM (≈ 18.6 µg/mL).

Question: And the MIC [6, 18]?
Answer: The MIC was 64 µM.

Question: And the MBC [7]?
Answer: Its MBC is 128 µM (≈ 37.3 µg/mL).

Question: And the MIC [7]?
Answer: The MIC was 128 µM (≈ 37.3 µg/mL).

Question: And the MBC [8]?
Answer: The MBC was 128 µM (≈ 37.3 µg/mL).

Question: And the MIC [8]?
Answer: The MIC was 128 µM (≈ 37.3 µg/mL).

Question: And the MBC [9]?
Answer: The MBC was 128 µM (≈ 37.3 µg/mL).

Question: What about the MIC [9] of the same compound?
Answer: The MIC was 128 µM (≈ 37.3 µg/mL).

Question: What about the MBC [10] of the same compound?
Answer: Its MBC is 128 µM (≈ 37.3 µg/mL).

Question: And the MIC [10]?
Answer: Its MIC is 128 µM (≈ 37.3 µg/mL).

Question: And the MBC [11]?
Answer: Its MBC is 128 µM (≈ 37.3 µg/mL).

Question: What about the MIC [11] of the same compound?
Answer: The MIC was 32 µM (≈ 9.32 µg/mL).

Question: For `CCCCCCCC#Cc1ccc(-c2nc(C)c(/C(C)=N/NC(=N)N)s2)cc1` [Compound M17, (E)-2-(1-(4-methyl-2-(4-(non-1-yn-1-yl)phenyl)thiazol-5-yl)ethylidene) hydrazinecarboximidamide], which MIC ([1]; 20 h) is on record?
Answer: Its MIC is 32 µM (≈ 12.7 µg/mL).

Question: And the MBC [1, 15]?
Answer: The MBC was 64 µM (≈ 25.3 µg/mL).

Question: What about the MIC [1, 16] of the same compound?
Answer: The MIC was 32 µM (≈ 12.7 µg/mL).

Question: What about the MBC [2, 15] of the same compound?
Answer: The MBC was 32 µM (≈ 12.7 µg/mL).

Question: And the MIC [2, 16]?
Answer: Its MIC is 16 µM (≈ 6.33 µg/mL).

Question: And the MBC [6, 17]?
Answer: Its MBC is 64 µM (≈ 25.3 µg/mL).

Question: What about the MIC [6, 18] of the same compound?
Answer: The MIC was 32 µM.

Question: And the MBC [11]?
Answer: The MBC was 64 µM (≈ 25.3 µg/mL).

Question: What about the MIC [11] of the same compound?
Answer: Its MIC is 32 µM (≈ 12.7 µg/mL).

Question: `CCCCc1ccc(-c2nc(C)c(/C(N)=N\O)s2)cc1` [Compound R7, (E)-2-(4-butylphenyl)-N′-hydroxy-4-methylthiazole-5-carboximidamide] was tested. Which MIC ([1]; Table 8, ATCC 43300, read-out: MIC) did it give?
Answer: Its MIC is > 128 µM.

Question: What about the MIC ([2]; Table 8, NRS1 (VISA), triplicates, 20 hours, read-out: MIC) of the same compound?
Answer: The MIC was > 128 µM.

Question: What about the MIC ([3]; Table 8, NRS19 (VISA), read-out: MIC) of the same compound?
Answer: The MIC was > 128 µM.

Question: And the MIC ([4]; Table 8, NRS37 (VISA), read-out: MIC)?
Answer: Its MIC is > 128 µM.

Question: And the MIC ([5]; Table 8, read-out: MIC)?
Answer: The MIC was > 128 µM.

Question: What about the MIC ([6]; Table 8, NRS119, read-out: MIC) of the same compound?
Answer: Its MIC is > 128 µM.

Question: And the MIC ([7]; Table 8, NRS123, read-out: MIC)?
Answer: Its MIC is > 128 µM.

Question: And the MIC ([8]; Table 8, read-out: MIC)?
Answer: Its MIC is > 128 µM.

Question: What about the MIC ([9]; Table 5, MRSA NRS384 (USA300), 128 μM down to 1.0 μM, 37° C., 19 hours, read-out: Minimum Inhibitory Concentration) of the same compound?
Answer: Its MIC is > 128 µM.

Question: What about the MIC ([9]; Table 8, NRS384, read-out: MIC) of the same compound?
Answer: Its MIC is > 128 µM.

Question: What about the MIC ([10]; Table 8, NRS385, read-out: MIC) of the same compound?
Answer: Its MIC is > 128 µM.

Question: Which results are given for `CN[C@H](CC(C)C)C(=O)N[C@H]1C(=O)N[C@@H](CC(N)=O)C(=O)N[C@H]2C(=O)N[C@H]3C(=O)N[C@H](C(=O)N[C@H](C(=O)O)c4cc(O)cc(O)c4-c4cc3ccc4O)[C@H](O)c3ccc(c(Cl)c3)Oc3cc2cc(c3O[C@@H]2O[C@H](CO)[C@@H](O)[C@H](O)[C@H]2O[C@H]2C[C@](C)(N)[C@H](O)[C@H](C)O2)Oc2ccc(cc2Cl)[C@H]1O` [Vancomycin, reference compound]?
Answer: MBC [1]: 0.5 µM (≈ 0.725 µg/mL); MIC [1]: 0.5 µM (≈ 0.725 µg/mL); MIC [1, 16]: < 1 µM; MBC [2]: 2 µM (≈ 2.9 µg/mL); MBC [3]: < 1 µM; MIC [3]: < 1 µM; MBC [4]: 2 µM (≈ 2.9 µg/mL); MBC [5]: < 1 µM; MIC [5]: < 1 µM; MBC ([6]; NRS119): < 1 µM; MIC ([6]; NRS119): < 1 µM; MIC ([6]; NRS119, read-out: Minimum Inhibitory Concentration): 1.4 µg/mL; MIC [6, 18]: < 1 µM; MBC [7]: 0.5 µM (≈ 0.725 µg/mL); MIC [7]: 0.5 µM (≈ 0.725 µg/mL); MBC [8]: 0.5 µM (≈ 0.725 µg/mL); MIC [8]: 0.5 µM (≈ 0.725 µg/mL); MIC [12]: 1.4 µg/mL (≈ 0.966 µM); MIC [13]: 0.4 µg/mL (≈ 0.276 µM); MBC [9]: 0.5 µM (≈ 0.725 µg/mL); MIC [9]: 0.5 µM (≈ 0.725 µg/mL); MBC [10]: 0.5 µM (≈ 0.725 µg/mL); MIC [10]: 0.5 µM (≈ 0.725 µg/mL); time to reduce the number of CFU by 3-log10 [14]: > 12 hours
